# Results from patent US20120270929A1, “MODULATION OF TTC39 EXPRESSION TO INCREASE HDL” (ISIS Pharmaceuticals, Inc., priority 2009, published 2012).
# Oligonucleotides are written 5' to 3', each unit as a sugar letter and its base; * is a phosphorothioate linkage, no mark a phosphodiester; rarer units and linkages stand in square brackets, end groups in braces. Plain capitals give the bases only. e = 2'-O-(2-methoxyethyl) (MOE); [5mC] = 5-methylcytosine; d = 2'-deoxy (DNA)
# Tests used:
# Type in all cases: cell-based
# murine TTC39C mRNA [1] = assay: Antisense inhibition of mouse TTC39C in mouse primary hepatocytes, single dose; conditions: 8,000 nM antisense oligonucleotide, electroporation, approximately 24 hours, TTC39C mRNA by real-time PCR (RTS3266), relative to untreated control cells
# Procedure: Antisense oligonucleotides were designed targeting a TTC39C nucleic acid and were tested for their effects on TTC39C mRNA in vitro. Cultured mouse primary hepatocytes at a density of 30,000 cells per well were transfected by electroporation with 8,000 nM antisense oligonucleotide. After a treatment period of approximately 24 hours, RNA was isolated from the cells and TTC39C mRNA levels were measured by quantitative real-time PCR. Mouse primer probe set RTS3266 (forward sequence […], designated herein as SEQ ID NO: 140; reverse sequence […], designated herein as SEQ ID NO: 141; probe sequence […], designated herein as SEQ ID NO: 142). TTC39C mRNA levels were adjusted according to total RNA content, as measured by RIBOGREEN®. Results are presented as percent inhibition of TTC39C, relative to untreated control cells.
# The chimeric antisense oligonucleotides targeting TTC39C were designed as 5-10-5 MOE gapmers. The gapmers are 20 nucleotides in length, wherein the central gap segment is comprised of ten 2′-deoxynucleotides and is flanked on both sides (in the 5′ and 3′ directions) by wings comprising five nucleotides each. Each nucleotide in the 5′ wing segment and each nucleotide in the 3′ wing segment has a 2′-MOE modification. The internucleoside linkages throughout each gapmer are phosphorothioate (P═S) linkages. All cytosine residues throughout each gapmer are 5-methylcytosines. “Mouse Target start site” indicates the 5′-most nucleotide to which the gapmer is targeted in the mouse gene sequence.
# murine TTC39C mRNA [2] = assay: Dose-dependent antisense inhibition of murine TTC39C in mouse primary hepatocytes; conditions: electroporation, ~16 h; for IC50: mouse primary hepatocytes
# Outline: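 Mouse primary hepatocytes (30,000/well) electroporated with antisense oligonucleotide at 500, 1,000, 2,000, 4,000 or 8,000 nM and harvested after about 16 h. TTC39C mRNA quantified by RT-qPCR (primer probe set RTS3266), normalised to RIBOGREEN total RNA; percent inhibition versus untreated cells.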
# murine TTC39B mRNA [3] = assay: Antisense inhibition of murine TTC39B in mouse primary hepatocytes, single dose; conditions: 100 nM, cytofectin, ~24 h, vs untreated control; gapmers targeted to SEQ ID NO: 10-14
# Outline: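 Mouse primary hepatocytes transfected by cytofectin with 100 nM 5-10-5 MOE gapmer (20-mer, phosphorothioate, 5-methylcytosine) for ~24 h. TTC39B mRNA quantified by real-time qPCR, normalized to RIBOGREEN total RNA. Values given as percent inhibition versus untreated cells.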
# murine TTC39B mRNA [4] = assay: Dose-dependent antisense inhibition of murine TTC39B in mouse primary hepatocytes (Example 2); conditions: cytofectin, ~16 h
# Procedure: Cells were plated at a density of 10,000 cells per well and transfected using cytofectin reagent with 25 nM, 50 nM, 100 nM, and 200 nM concentrations of antisense oligonucleotide, as specified in Table 3. After a treatment period of approximately 16 hours, RNA was isolated from the cells and TTC39B mRNA levels were measured by quantitative real-time PCR. Murine primer probe set mTtc39b_LTS00287 (forward sequence: […], incorporated herein as SEQ ID NO: 94; reverse sequence: […], incorporated herein as SEQ ID NO: 95; probe sequence: […], incorporated herein as SEQ ID NO: 96) was used to measure mRNA levels. TTC39B mRNA levels were adjusted according to total RNA content, as measured by RIBOGREEN®. Results are presented as percent inhibition of TTC39B, relative to untreated control cells.
# murine TTC39B mRNA [5] = assay: Dose-dependent antisense inhibition of murine TTC39B in mouse primary hepatocytes (Example 3); conditions: cytofectin, ~16 h
# Procedure: Cells were plated at a density of 10,000 cells per well and transfected using cytofectin reagent with 6.25 nM, 12.5 nM, 25 nM, 50 nM, 100 nM, and 200 nM concentrations of antisense oligonucleotide, as specified in Table 4. After a treatment period of approximately 16 hours, RNA was isolated from the cells and TTC39B mRNA levels were measured by quantitative real-time PCR. Murine primer probe set mTtc39b_LTS00287 was used to measure mRNA levels. TTC39B mRNA levels were adjusted according to total RNA content, as measured by RIBOGREEN®. Results are presented as percent inhibition of TTC39B, relative to untreated control cells.
Substance,% inhibition (murine TTC39C mRNA [1]) [%],percent inhibition of TTC39C mRNA (murine TTC39C mRNA [2]; 500.0 nM) [%],percent inhibition of TTC39C mRNA (murine TTC39C mRNA [2]; 1000.0 nM) [%],percent inhibition of TTC39C mRNA (murine TTC39C mRNA [2]; 2000.0 nM) [%],percent inhibition of TTC39C mRNA (murine TTC39C mRNA [2]; 4000.0 nM) [%],percent inhibition of TTC39C mRNA (murine TTC39C mRNA [2]; 8000.0 nM) [%],IC50 (murine TTC39C mRNA [2]) [nM],% inhibition of murine TTC39B mRNA (murine TTC39B mRNA [3]) [%],percent inhibition of TTC39B mRNA (murine TTC39B mRNA [4]; 25 nM) [%],percent inhibition of TTC39B mRNA (murine TTC39B mRNA [4]; 50 nM) [%],percent inhibition of TTC39B mRNA (murine TTC39B mRNA [4]; 100 nM) [%],percent inhibition of TTC39B mRNA (murine TTC39B mRNA [4]; 200 nM) [%],percent inhibition of TTC39B mRNA (murine TTC39B mRNA [5]; 6.25 nM) [%],percent inhibition of TTC39B mRNA (murine TTC39B mRNA [5]; 12.5 nM) [%],percent inhibition of TTC39B mRNA (murine TTC39B mRNA [5]; 25.0 nM) [%],percent inhibition of TTC39B mRNA (murine TTC39B mRNA [5]; 50.0 nM) [%],percent inhibition of TTC39B mRNA (murine TTC39B mRNA [5]; 100.0 nM) [%],percent inhibition of TTC39B mRNA (murine TTC39B mRNA [5]; 200.0 nM) [%]
ISIS 474604: 5-10-5 MOE gapmer antisense oligonucleotide targeting murine TTC39C (antisense eT*eG*eT*e[5mC]*eA*d[5mC]*dT*dG*d[5mC]*d[5mC]*dG*dT*d[5mC]*d[5mC]*dA*eA*eA*eG*e[5mC]*eA),97,43,70,84,88,96,500,,,,,,,,,,,
ISIS 474607: 5-10-5 MOE gapmer antisense oligonucleotide targeting murine TTC39C (antisense eT*e[5mC]*eA*eA*eT*d[5mC]*dA*dT*dG*d[5mC]*dT*dG*d[5mC]*dA*d[5mC]*e[5mC]*eA*eG*e[5mC]*e[5mC]),98,40,65,85,92,94,500,,,,,,,,,,,
ISIS 474609: 5-10-5 MOE gapmer antisense oligonucleotide targeting murine TTC39C (antisense e[5mC]*eG*eT*eA*eG*dT*dA*dG*d[5mC]*dA*d[5mC]*dT*dG*dG*dG*eA*e[5mC]*e[5mC]*eA*e[5mC]),95,48,56,71,90,97,600,,,,,,,,,,,
ISIS 474610: 5-10-5 MOE gapmer antisense oligonucleotide targeting murine TTC39C (antisense eT*eT*eA*eA*eG*dA*dA*d[5mC]*dA*dA*dG*dT*dT*dG*dT*eG*e[5mC]*e[5mC]*e[5mC]*e[5mC]),90,10,28,38,65,71,2800,,,,,,,,,,,
ISIS 474613: 5-10-5 MOE gapmer antisense oligonucleotide targeting murine TTC39C (antisense eT*eG*e[5mC]*eT*eT*dT*dA*dA*dT*d[5mC]*d[5mC]*dA*dA*d[5mC]*dG*eA*e[5mC]*eA*eG*eA),90,30,33,43,65,74,2100,,,,,,,,,,,
ISIS 474615: 5-10-5 MOE gapmer antisense oligonucleotide targeting murine TTC39C (antisense eG*eT*eA*e[5mC]*eG*dA*dG*dT*dT*dA*d[5mC]*dT*d[5mC]*dT*dG*e[5mC]*e[5mC]*eG*eA*e[5mC]),96,33,43,82,92,98,900,,,,,,,,,,,
ISIS 474617: 5-10-5 MOE gapmer antisense oligonucleotide targeting murine TTC39C (antisense eA*eG*eT*eT*e[5mC]*d[5mC]*d[5mC]*dT*dT*dA*dG*dG*dG*dA*dG*eG*e[5mC]*e[5mC]*eA*eG),94,43,45,80,86,94,800,,,,,,,,,,,
ISIS 474629: 5-10-5 MOE gapmer antisense oligonucleotide targeting murine TTC39C (antisense eG*eA*eT*e[5mC]*eA*d[5mC]*dT*dG*d[5mC]*d[5mC]*dG*dT*d[5mC]*d[5mC]*dA*eA*eA*eG*e[5mC]*eA),93,16,28,42,48,66,3600,,,,,,,,,,,
ISIS 474662: 5-10-5 MOE gapmer antisense oligonucleotide targeting murine TTC39C (antisense eG*eG*eA*eT*eT*dT*d[5mC]*d[5mC]*dG*dG*dG*d[5mC]*dA*dT*d[5mC]*eA*eA*e[5mC]*e[5mC]*eT),95,28,35,65,88,94,1300,,,,,,,,,,,
ISIS 474666: 5-10-5 MOE gapmer antisense oligonucleotide targeting murine TTC39C (antisense e[5mC]*eA*eA*eT*e[5mC]*dA*dT*dG*d[5mC]*dT*dG*d[5mC]*dA*d[5mC]*d[5mC]*eA*eG*e[5mC]*e[5mC]*eT),95,35,54,79,92,95,800,,,,,,,,,,,
TGTCAGTGACAGTGGCAGCT (antisense eT*eG*eT*e[5mC]*eA*dG*dT*dG*dA*d[5mC]*dA*dG*dT*dG*dG*e[5mC]*eA*eG*e[5mC]*eT) [ISIS 447159],,,,,,,,71,41,60,76,85,12,19,37,62,78,86
